Here are results for eight cell lines from the supplement of paper PMC10307832.

Holding throughout (experiment): relative viability (nuclei count vs DMSO), 5 days (fraction); higher = more cells survive
Compound in assay [1]: C[C@@H](N)c1ccc(C(=O)Nc2ccnc3[nH]ccc23)cc1 + Nc1nc2[nH]cc(CCc3ccc(C(=O)N[C@@H](CCC(=O)O)C(=O)O)cc3)c2c(=O)[nH]1 [Pemetrexed] (partner 0.2 µM)
The procedure, abridged: (§1)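 Cells from lung cancer lines were seeded into 1536-well plates and, one day later, dosed by pin tool. Treatments were either a single drug or a fixed dose of an anchor drug with five library-drug doses (not always all listed) in √10 steps. After 5 days, nuclei were stained in a one-step fixation (final 0.05% Triton X-100, 1% formaldehyde, 1 ug/ml Hoechst) and counted on 4× images, and relative viability is the treated-to-vehicle nuclei ratio, as the median of duplicate plates.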

Compound in assay [2]: C1CNCCC1C2=CC(=NN2)C3=CC=NC=C3 + Cc1cc(Nc2cc(N3CCN(C)CC3)nc(Sc3ccc(NC(=O)C4CC4)cc3)n2)n[nH]1 [Tozasertib] (partner 0.1 µM)
The procedure, abridged: as §1

Compound in the assay “Tanzisertib + Dasatinib”: O[C@H]1CC[C@H](Nc2ncc3nc(Nc4c(F)cc(F)cc4F)n([C@H]4CCOC4)c3n2)CC1 [Tanzisertib] + Cc1nc(Nc2ncc(C(=O)Nc3c(C)cccc3Cl)s2)cc(N2CCN(CCO)CC2)n1 [Dasatinib] (partner 0.075 µM)
The procedure, abridged:
as §1

Compound in assay [3]: C[C@@H](N)c1ccc(C(=O)Nc2ccnc3[nH]ccc23)cc1 + CC(=O)Nc1cccc(-n2c(=O)n(C3CC3)c(=O)c3c(Nc4ccc(I)cc4F)n(C)c(=O)c(C)c32)c1 [Trametinib] (partner 0.02 µM)
The procedure, abridged: as §1

In the case of NCI-H1395, the relative viability in assay [1] (first compound 0.04 µM) is 0.888; in assay [1] (first compound 0.1265 µM), 0.95; in assay [1] (first compound 0.4 µM), 0.927; in assay [1] (first compound 4 µM), 0.741; in assay [2] (first compound 0.08 µM), 0.731; in assay [2] (first compound 0.8 µM), 0.643. Also, the relative viability in assay [2] (first compound 2.53 µM) is 0.813; in assay [2] (first compound 8 µM) it was 0.766; with Tanzisertib + Dasatinib (first compound 0.08 µM) it was 0.439; with Tanzisertib + Dasatinib (first compound 0.253 µM), 0.428; with Tanzisertib + Dasatinib (first compound 0.8 µM) it was 0.406; with Tanzisertib + Dasatinib (first compound 2.53 µM), 0.437. Further, the relative viability turned out to be 0.375 in the assay with Tanzisertib + Dasatinib (first compound 8 µM); 1.04 in assay [3] (first compound 0.04 µM); 0.996 in assay [3] (first compound 0.1265 µM); 1.03 in assay [3] (first compound 0.4 µM); 0.912 in assay [3] (first compound 4 µM).
Regarding NCI-H1437, the relative viability came to 0.3 in assay [1] (first compound 0.04 µM); 0.307 in assay [1] (first compound 0.1265 µM); 0.351 in assay [1] (first compound 0.4 µM); 0.329 in assay [1] (first compound 1.265 µM); 0.34 in assay [1] (first compound 4 µM); 0.412 in assay [2] (first compound 0.08 µM). Moreover, the relative viability was 0.415 in assay [2] (first compound 0.8 µM); 0.417 in assay [2] (first compound 2.53 µM); 0.421 in assay [2] (first compound 8 µM); 0.527 with Tanzisertib + Dasatinib (first compound 0.08 µM); 0.465 with Tanzisertib + Dasatinib (first compound 0.253 µM); 0.393 with Tanzisertib + Dasatinib (first compound 0.8 µM). Further, the relative viability stood at 0.365 in the assay with Tanzisertib + Dasatinib (first compound 2.53 µM); 0.439 with Tanzisertib + Dasatinib (first compound 8 µM); 0.647 in assay [3] (first compound 0.04 µM); 0.572 in assay [3] (first compound 0.1265 µM); 0.681 in assay [3] (first compound 0.4 µM); 0.601 in assay [3] (first compound 1.265 µM). In addition, in assay [3] (first compound 4 µM), the relative viability turned out to be 0.638.
On to NCI-H1650, for which the relative viability amounted to 0.443 in assay [1] (first compound 0.04 µM); 0.394 in assay [1] (first compound 0.1265 µM); 0.399 in assay [1] (first compound 0.4 µM); 0.349 in assay [1] (first compound 1.265 µM); 0.355 in assay [1] (first compound 4 µM); 0.393 in assay [2] (first compound 0.08 µM). In addition, the relative viability in assay [2] (first compound 0.8 µM) is 0.446; in assay [2] (first compound 2.53 µM), 0.433; in assay [2] (first compound 8 µM), 0.392; in the assay with Tanzisertib + Dasatinib (first compound 0.08 µM) it was 0.319; with Tanzisertib + Dasatinib (first compound 0.253 µM) it was 0.305; in the assay with Tanzisertib + Dasatinib (first compound 0.8 µM), 0.273. In addition, the relative viability with Tanzisertib + Dasatinib (first compound 2.53 µM) was found to be 0.283; with Tanzisertib + Dasatinib (first compound 8 µM), 0.28; in assay [3] (first compound 0.04 µM), 0.579; in assay [3] (first compound 0.1265 µM) it was 0.786; in assay [3] (first compound 0.4 µM), 0.648; in assay [3] (first compound 1.265 µM) it was 0.554. For the same cell line, the relative viability in assay [3] (first compound 4 µM) worked out at 0.609.
For the cell line NCI-H1651, the relative viability amounted to 0.628 in assay [1] (first compound 0.04 µM); 0.584 in assay [1] (first compound 0.1265 µM); 0.663 in assay [1] (first compound 0.4 µM); 0.611 in assay [1] (first compound 1.265 µM); 0.706 in assay [1] (first compound 4 µM); 0.598 in assay [2] (first compound 0.08 µM). Also, the relative viability came to 0.685 in assay [2] (first compound 0.8 µM); 0.767 in assay [2] (first compound 2.53 µM); 0.735 in assay [2] (first compound 8 µM); 0.378 with Tanzisertib + Dasatinib (first compound 0.08 µM); 0.522 in the assay with Tanzisertib + Dasatinib (first compound 0.253 µM); 0.378 in the assay with Tanzisertib + Dasatinib (first compound 0.8 µM). Moreover, the relative viability with Tanzisertib + Dasatinib (first compound 2.53 µM) worked out at 0.336; in the assay with Tanzisertib + Dasatinib (first compound 8 µM), 0.417; in assay [3] (first compound 0.04 µM) it was 0.877; in assay [3] (first compound 0.1265 µM), 0.862; in assay [3] (first compound 0.4 µM), 0.959; in assay [3] (first compound 1.265 µM), 0.941. In assay [3] (first compound 4 µM), the relative viability was determined as 0.848.
Regarding NCI-H1666, the relative viability in assay [1] (first compound 0.04 µM) stood at 0.872; in assay [1] (first compound 0.1265 µM), 0.815; in assay [1] (first compound 0.4 µM), 0.847; in assay [1] (first compound 1.265 µM), 0.956; in assay [1] (first compound 4 µM), 0.974; in assay [2] (first compound 0.08 µM), 0.59. Further, the relative viability was determined as 0.7 in assay [2] (first compound 0.8 µM); 0.693 in assay [2] (first compound 2.53 µM); 0.755 in assay [2] (first compound 8 µM); 0.821 with Tanzisertib + Dasatinib (first compound 0.08 µM); 0.843 with Tanzisertib + Dasatinib (first compound 0.253 µM); 0.755 in the assay with Tanzisertib + Dasatinib (first compound 0.8 µM). The relative viability came out at 0.841 with Tanzisertib + Dasatinib (first compound 2.53 µM); 0.955 with Tanzisertib + Dasatinib (first compound 8 µM); 0.852 in assay [3] (first compound 0.04 µM); 0.903 in assay [3] (first compound 0.1265 µM); 0.981 in assay [3] (first compound 0.4 µM); 0.916 in assay [3] (first compound 1.265 µM). Moreover, the relative viability in assay [3] (first compound 4 µM) amounted to 0.926.
With NCI-H1734, the relative viability in assay [1] (first compound 0.04 µM) is 0.405; in assay [1] (first compound 0.1265 µM), 0.419; in assay [1] (first compound 0.4 µM), 0.385; in assay [1] (first compound 1.265 µM) it was 0.362; in assay [1] (first compound 4 µM) it was 0.39; in assay [2] (first compound 0.08 µM), 0.27. In addition, the relative viability in assay [2] (first compound 0.8 µM) came out at 0.279; in assay [2] (first compound 2.53 µM) it was 0.269; in assay [2] (first compound 8 µM) it was 0.271; with Tanzisertib + Dasatinib (first compound 0.08 µM), 0.47; with Tanzisertib + Dasatinib (first compound 0.253 µM) it was 0.449; in the assay with Tanzisertib + Dasatinib (first compound 0.8 µM), 0.459. Moreover, the relative viability was found to be 0.473 in the assay with Tanzisertib + Dasatinib (first compound 2.53 µM); 0.444 with Tanzisertib + Dasatinib (first compound 8 µM); 0.735 in assay [3] (first compound 0.04 µM); 0.698 in assay [3] (first compound 0.1265 µM); 0.708 in assay [3] (first compound 0.4 µM); 0.668 in assay [3] (first compound 1.265 µM). Further, in assay [3] (first compound 4 µM), the relative viability amounted to 0.582.
As for NCI-H1755, the relative viability is 0.433 in assay [1] (first compound 0.04 µM); 0.527 in assay [1] (first compound 0.1265 µM); 0.448 in assay [1] (first compound 0.4 µM); 0.425 in assay [1] (first compound 1.265 µM); 0.471 in assay [1] (first compound 4 µM); 0.583 in assay [2] (first compound 0.08 µM). Further, the relative viability in assay [2] (first compound 2.53 µM) is 0.643; in assay [2] (first compound 8 µM) it was 0.526; in the assay with Tanzisertib + Dasatinib (first compound 0.08 µM), 0.408; in the assay with Tanzisertib + Dasatinib (first compound 0.253 µM), 0.46; with Tanzisertib + Dasatinib (first compound 0.8 µM) it was 0.488; with Tanzisertib + Dasatinib (first compound 2.53 µM), 0.464. Further, the relative viability was 0.333 with Tanzisertib + Dasatinib (first compound 8 µM); 0.768 in assay [3] (first compound 0.04 µM); 0.752 in assay [3] (first compound 0.1265 µM); 0.761 in assay [3] (first compound 0.4 µM); 0.707 in assay [3] (first compound 1.265 µM); 0.644 in assay [3] (first compound 4 µM).
NCI-H1793: the relative viability in assay [1] (first compound 0.04 µM) is 1.02; in assay [1] (first compound 0.1265 µM), 0.978; in assay [1] (first compound 0.4 µM), 0.94; in assay [1] (first compound 4 µM) it was 1; in assay [2] (first compound 0.08 µM), 0.313; in assay [2] (first compound 0.8 µM), 0.243. For the same cell line, the relative viability was 0.332 in assay [2] (first compound 2.53 µM); 0.373 in assay [2] (first compound 8 µM); 0.417 in the assay with Tanzisertib + Dasatinib (first compound 0.08 µM); 0.367 with Tanzisertib + Dasatinib (first compound 0.253 µM); 0.405 in the assay with Tanzisertib + Dasatinib (first compound 0.8 µM); 0.388 with Tanzisertib + Dasatinib (first compound 2.53 µM). The relative viability was 0.423 in the assay with Tanzisertib + Dasatinib (first compound 8 µM); 0.46 in assay [3] (first compound 0.04 µM); 0.442 in assay [3] (first compound 0.1265 µM); 0.452 in assay [3] (first compound 0.4 µM); 0.61 in assay [3] (first compound 4 µM).
